Reference: patent US20250382273A1 (INSTITUT NATIONAL DE LA SANTE ET DE LA RECHERCHE MEDICALE, priority 2022, published 2025)

system: M. tuberculosis H37Rv_DdnL49P_gfp; assay type: cell-based, Mycobacterium tuberculosis; conditions: read-out: EC50 H37Rv_DdnL49P_gfp

`O=C(Nc1nc2ccc(C#Cc3ccccc3)cc2s1)[C@@H]1C2C=CC(C2)[C@@H]1C(=O)O` (some centres unmarked) [Example 77, 3-[[6-(2-phenylethynyl)-1,3-benzothiazol-2-yl]carbamoyl]bicyclo[2.2.1]hept-5-ene-2-carboxylic acid] and `O=C(Nc1nc2ccc(C#CC3CC3)cc2s1)[C@@H]1C2C=CC(C2)[C@@H]1C(=O)O` (some centres unmarked) [Example 79, 3-[[6-(2-cyclopropylethynyl)-1,3-benzothiazol-2-yl]carbamoyl]bicyclo[2.2.1]hept-5-ene-2-carboxylic acid] cannot be ordered by EC50: < 1 µM for the first, < 1 µM for the second.

First: Cc1ccc2nc(NC(=O)[C@@H]3C4C=CC(C4)[C@@H]3C(=O)O)sc2c1 (mixture of isomers) [Example 1, 3-[(6-methyl-1,3-benzothiazol-2-yl)carbamoyl]bicyclo[2.2.1]hept-5-ene-2-carboxylic acid]
Second: O=C(Nc1nc2ccc(F)cc2s1)[C@@H]1C2C=CC(C2)[C@@H]1C(=O)O (some centres unmarked) [Example 42, 3-[(6-fluoro-1,3-benzothiazol-2-yl)carbamoyl]bicyclo[2.2.1]hept-5-ene-2-carboxylic acid]
The EC50 of the first is higher: 5 to 10 µM for the first, 1 to 5 µM for the second. The second is the more potent here.

Compared with `O=C(Nc1nc2ccc(OC(F)(F)F)cc2s1)[C@@H]1C2C=CC(C2)[C@@H]1C(=O)O` (some centres unmarked) [Example 44, 3-[[6-(trifluoromethoxy)-1,3-benzothiazol-2-yl]carbamoyl]bicyclo[2.2.1]hept-5-ene-2-carboxylic acid], `O=C(Nc1nc2ccc(-c3ccc(OC(F)(F)F)cc3)cc2s1)[C@@H]1C2C=CC(C2)[C@@H]1C(=O)O` (some centres unmarked) [Example 62, 3-[[6-[4-(trifluoromethoxy)phenyl]-1,3-benzothiazol-2-yl]carbamoyl]bicyclo[2.2.1]hept-5-ene-2-carboxylic acid] is lower in EC50: 1 to 5 µM for the first, < 1 µM for the second.

First: O=C1[C@@H]2[C@H](C(=O)N1c1nc3ccc(OC(F)(F)F)cc3s1)[C@@H]1C=C[C@H]2C1 [Example 45, (1R,2S,6R,7S)-4-[6-(trifluoromethoxy)-1,3-benzothiazol-2-yl]-4-azatricyclo[5.2.1.02,6]dec-8-ene-3,5-dione]
Second: CCOc1ccc2nc(N3C(=O)[C@@H]4[C@H](C3=O)[C@@H]3C=C[C@H]4C3)sc2c1 [Example 8, (1R,2S,6R,7S)-4-(6-ethoxy-1,3-benzothiazol-2-yl)-4-azatricyclo[5.2.1.02,6]dec-8-ene-3,5-dione]
The EC50 of the first is higher: 5 to 10 µM for the first, 1 to 5 µM for the second.

`O=C(Nc1nc2ccc(Nc3cccc(F)n3)cc2s1)[C@@H]1C2C=CC(C2)[C@@H]1C(=O)O` (some centres unmarked) [Example 88, 3-[[6-[(6-fluoro-2-pyridyl)amino]-1,3-benzothiazol-2-yl]carbamoyl]bicyclo[2.2.1]hept-5-ene-2-carboxylic acid] and `O=C(Nc1nc2ccc(Nc3cc(F)ccn3)cc2s1)[C@@H]1C2C=CC(C2)[C@@H]1C(=O)O` (some centres unmarked) [Example 85, 3-[[6-[(4-fluoro-2-pyridyl)amino]-1,3-benzothiazol-2-yl]carbamoyl]bicyclo[2.2.1]hept-5-ene-2-carboxylic acid] cannot be ordered by EC50: < 1 µM for the first, < 1 µM for the second.

`O=C(Nc1nc2ccc(Oc3ncccc3C(F)(F)F)cc2s1)[C@@H]1C2C=CC(C2)[C@@H]1C(=O)O` (some centres unmarked) [Example 25, 3-[[6-[[3-(trifluoromethyl)-2-pyridyl]oxy]-1,3-benzothiazol-2-yl]carbamoyl]bicyclo[2.2.1]hept-5-ene-2-carboxylic acid] and `O=C(O)C1C2C=CC(C2)[C@H]1C(=O)Nc1nc2ccc(-c3ccc(C(F)(F)F)nc3)cc2s1` (some centres unmarked) [Example 66, 3-[[6-[6-(trifluoromethyl)-3-pyridyl]-1,3-benzothiazol-2-yl]carbamoyl]bicyclo [2.2.1]hept-5-ene-2-carboxylic acid] fall in the same range of EC50: 1 to 5 µM for the first, 1 to 5 µM for the second.

Compared with `O=C1[C@@H]2C3C=CC(C3)[C@@H]2C(=O)N1c1nc2ccc(-c3ccc(F)nc3)cc2s1` [Example 65, (1R,2S,6R,7S)-4-[6-(6-fluoro-3-pyridyl)-1,3-benzothiazol-2-yl]-4-azatricyclo[5.2.1.02.6]dec-8-ene-3,5-dione], `Cc1ccc2nc(N3C(=O)[C@@H]4[C@H](C3=O)[C@@H]3C=C[C@H]4C3)sc2c1` [Example 2, (1R,2S,6R,7S)-4-(6-methyl-1,3-benzothiazol-2-yl)-4-azatricyclo[5.2.1.02,6]dec-8-ene-3,5-dione] is higher in EC50: 1 to 5 µM for the first, 5 to 10 µM for the second.

`Cc1cccc2sc(NC(=O)[C@@H]3C4C=CC(C4)[C@@H]3C(=O)O)nc12` (some centres unmarked) [Example 16, 3-[(4-methyl-1,3-benzothiazol-2-yl)carbamoyl]bicyclo[2.2.1]hept-5-ene-2-carboxylic acid] and `Cc1cc(C)c2nc(NC(=O)[C@@H]3C4C=CC(C4)[C@@H]3C(=O)O)sc2c1` (some centres unmarked) [Example 13, 3-[(4,6-dimethyl-1,3-benzothiazol-2-yl)carbamoyl]bicyclo[2.2.1]hept-5-ene-2-carboxylic acid] fall in the same range of EC50: 1 to 5 µM for the first, 1 to 5 µM for the second.

Compared with `O=C(Nc1nc2ccc(-c3cncnc3)cc2s1)[C@@H]1C2C=CC(C2)[C@@H]1C(=O)O` (some centres unmarked) [Example 80, 3-[(6-pyrimidin-5-yl-1,3-benzothiazol-2-yl)carbamoyl]bicyclo[2.2.1]hept-5-ene-2-carboxylic acid], `O=C(Nc1nc2ccc(-c3ccc(Cl)cc3)cc2s1)[C@@H]1C2C=CC(C2)[C@@H]1C(=O)O` (some centres unmarked) [Example 55, 3-[[6-(4-chlorophenyl)-1,3-benzothiazol-2-yl]carbamoyl]bicyclo[2.2.1]hept-5-ene-2-carboxylic acid] is lower in EC50: 10 to 20 µM for the first, < 1 µM for the second.

First: COC(=O)c1ccc2nc(NC(=O)[C@@H]3C4C=CC(C4)[C@@H]3C(=O)O)sc2c1 (some centres unmarked) [Example 41, 3-[(6-methoxycarbonyl-1,3-benzothiazol-2-yl)carbamoyl]bicyclo[2.2.1]hept-5-ene-2-carboxylic acid]
Second: O=C(O)C1C2C=CC(C2)C1C(=O)Nc1nc2ccc([N+](=O)[O-])cc2s1 (centres unmarked) [Example 38, 3-[(6-nitro-1,3-benzothiazol-2-yl)carbamoyl]bicyclo[2.2.1]hept-5-ene-2-carboxylic acid]
The EC50 of the first is lower: 1 to 5 µM for the first, 5 to 10 µM for the second. The first is the more potent here.

`O=C1[C@@H]2[C@H](C(=O)N1c1nc3ccc(Oc4ncccc4C(F)(F)F)cc3s1)[C@@H]1C=C[C@H]2C1` [Example 26, (1R,2S,6R,7S)-4-[6-[[3-(trifluoromethyl)-2-pyridyl]oxy]-1,3-benzothiazol-2-yl]-4-azatricyclo[5.2.1.02,6]dec-8-ene-3,5-dione] and `O=C1[C@@H]2[C@H](C(=O)N1c1nc3ccc(Oc4ccc(C(F)(F)F)cc4)cc3s1)[C@@H]1C=C[C@H]2C1` [Example 23, (1R,2S,6R,7S)-4-[6-[4-(trifluoromethyl)phenoxy]-1,3-benzothiazol-2-yl]-4-azatricyclo[5.2.1.02,6]dec-8-ene-3,5-dione] fall in the same range of EC50: 1 to 5 µM for the first, 1 to 5 µM for the second.

First: Cc1ccnc(Nc2ccc3nc(NC(=O)[C@@H]4C5C=CC(C5)[C@@H]4C(=O)O)sc3c2)c1 (some centres unmarked) [Example 84, 3-[[6-[(4-methyl-2-pyridyl)amino]-1,3-benzothiazol-2-yl]carbamoyl]bicyclo[2.2.1]hept-5-ene-2-carboxylic acid]
Second: O=C(Nc1nc2ccc(Nc3ccc(C(F)(F)F)cn3)cc2s1)[C@@H]1C2C=CC(C2)[C@@H]1C(=O)O (some centres unmarked) [Example 96, 3-[[6-[[5-(trifluoromethyl)-2-pyridyl]amino]-1,3-benzothiazol-2-yl]carbamoyl]bicyclo[2.2.1]hept-5-ene-2-carboxylic acid]
The EC50 of the first is higher: 1 to 5 µM for the first, < 1 µM for the second.

First: O=C(Nc1nc2ccc(Nc3cncc(C(F)(F)F)c3)cc2s1)[C@@H]1C2C=CC(C2)[C@@H]1C(=O)O (some centres unmarked) [Example 91, 3-[[6-[[5-(trifluoromethyl)-3-pyridyl]amino]-1,3-benzothiazol-2-yl]carbamoyl]bicyclo[2.2.1]hept-5-ene-2-carboxylic acid]
Second: Cc1ccnc(Oc2ccc3nc(N4C(=O)[C@@H]5C6C=CC(C6)[C@@H]5C4=O)sc3c2)c1 [Example 30]
The EC50 of the first is higher: 5 to 10 µM for the first, < 1 µM for the second. The second is the more potent here.
